In PMC8772772, “Enantioselective Synthesis and Pharmacological Evaluation of Aza-CGP37157–Lipoic Acid Hybrids for the Treatment of Alzheimer’s Disease” (Antioxidants, 2022):

System: NRF2
Assay: NRF2 nuclear localization, immunocytochemistry in AREc32 cells
Type: cell-based
Settings: 30 μM, 2 h, vs basal
Experimental: AREc32 cells were plated in 24 multi-well plates on poly-D-Lysine-coated crystal slides (4 × 10^4 cells/well). Cells were treated with compounds 7a or 7b (30 µM) for 2 h and fixed by treatment with 4% paraformaldehyde solution in PBS (10 min). After 3 washings with PBS every 5 min, cells were permeabilized with 0.1% Triton X-100 solution for five min, washed 3 times with PBS (5 min) and incubated overnight with primary antibody anti-NRF2 (1:50, A-10, sc-365949, Santa Cruz Biotechnology, Dallas, TX, USA). Thereafter, cells were washed with PBS (3×, 5 min) and incubated with secondary antibody (1:500, 1 h). Finally, nuclei were stained with 5 µg/mL PBS solution of Hoechst 33342 (Invitrogen, Madrid, Spain) during the second wash. Finally, slides were mounted on coverslips (glycerol–PBS (1:1 v/v)), and images were obtained in a confocal microscope (TCS SPE, Leica, Wetzlar, Germany).
To obtain deeper insight into the mechanism of action of compounds 7, we evaluated their potential capacity to induce NRF2 nuclear localization and the activation of the phase II response. As previously described, NRF2 is sequestered at the cytoplasm by its repressor protein KEAP1, which mediates its proteasomal degradation. […] Thus, we firstly evaluated the capacity of compounds 7a and 7b to induce NRF2 nuclear localization as part of their mechanism of action. […]

Compound | NRF2 nuclear localization
O=C1CN(CCOC(=O)CCCC[C@H]2CCSS2)[C@@H](c2ccccc2Cl)c2cc(Cl)ccc2N1 [(S,R)-7b, 2-((R)-7-Chloro-5-(2-chlorophenyl)-2-oxo-1,2,3,5-tetrahydro-4H-benzo[e][1,4]diazepin-4-yl)ethyl 5-((S)-1,2-dithiolan-3-yl)pentanoate] | predominantly nuclear localization of NRF2
O=C1CN(CCOC(=O)CCCC[C@H]2CCSS2)[C@H](c2ccccc2Cl)c2cc(Cl)ccc2N1 [(S,S)-7a, 2-((S)-7-Chloro-5-(2-chlorophenyl)-2-oxo-1,2,3,5-tetrahydro-4H-benzo[e][1,4]diazepin-4-yl)ethyl 5-((S)-1,2-dithiolan-3-yl)pentanoate] | predominantly nuclear localization of NRF2
